# In patent US10420734B2, “Method of treating cancer using selective estrogen receptor modulators” (Duke University, priority 2014, dated 2019):
# Entries after “also recorded” stand apart in the source; their conditions may differ. Like-named read-outs stand apart in the source and are kept apart here.
# Legend:
# [1] = cited from earlier work
# ESR1 target genes = experiment: ESR1 target gene expression profile in MCF7 cells; type: cell-based; conditions: 24 hours
# Experimental: A recent extensive microarray analysis has identified “sentinel” subsets of ER-responsive genes that can differentiate between ER agonists, SERMs and SERDs. […] MCF7 breast cancer cells were treated 24 hours with RAD1901 (0-1 μM) in the presence or absence of 17β-estradiol (1 nM). RNA isolation and the analysis of the expression of target genes Anterior gradient protein 2 (AGR2) and KCNK6 was conducted as in Example 3.
# The expression of ESR1 target genes responsive to (FIG. 10A) agonists, (FIG. 10B) primarily SERMs, or (FIG. 10C) SERMs and agonists was analyzed as in FIG. 5. […] Significant target gene regulation (*p<0.05) as compared to the vehicle control was detected by 2 way ANOVA followed by Fisher's LSD (Graphpad Prism 6). […] Interaction of ESR1 with the Gal4DBD peptide constructs was detected through activation of a Gal4-responsive luciferase reporter construct and was normalized to detected β-galactosidase activity expressed in a constitutive manner using a second vector. Normalized response was expressed as fold increase over the detected level of interaction between Gal4DBD alone and ESR1-VP16 in the absence of ligand (Veh). For FIG. 10E, the effect of SERMs and SERDs (10^−6 M) on the proliferation of MCF7 cells in response to E2 (10^−9 M) or insulin (2×10^−9 M) was evaluated as in FIG. 5. […]
# [2] = biological target: T1, human estrogen receptor alpha (ESR1) (Homo sapiens, UniProt P03372); experiment: ERE-luciferase reporter assay in transiently transfected SKBR3 cells (ESR1); type: cell-based
# T1 construct: expressed in transfected cells; host or cells: SKBR3
# T1 sequence (P03372 1-595): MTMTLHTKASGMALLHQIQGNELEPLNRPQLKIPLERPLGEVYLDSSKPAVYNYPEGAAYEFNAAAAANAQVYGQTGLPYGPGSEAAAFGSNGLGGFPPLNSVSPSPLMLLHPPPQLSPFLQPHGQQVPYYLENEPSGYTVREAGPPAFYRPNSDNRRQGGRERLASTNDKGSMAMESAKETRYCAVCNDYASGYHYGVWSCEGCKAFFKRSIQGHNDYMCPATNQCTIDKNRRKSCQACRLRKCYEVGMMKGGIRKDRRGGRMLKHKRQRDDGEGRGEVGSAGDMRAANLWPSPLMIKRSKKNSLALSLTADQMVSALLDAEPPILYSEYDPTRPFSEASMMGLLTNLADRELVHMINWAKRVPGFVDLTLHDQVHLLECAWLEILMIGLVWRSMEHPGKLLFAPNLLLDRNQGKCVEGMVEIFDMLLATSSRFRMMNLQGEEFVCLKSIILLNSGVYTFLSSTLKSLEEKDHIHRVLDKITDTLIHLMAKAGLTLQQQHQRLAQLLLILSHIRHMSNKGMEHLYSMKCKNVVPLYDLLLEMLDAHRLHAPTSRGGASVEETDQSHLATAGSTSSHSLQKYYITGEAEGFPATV
# Experimental: The ability of RAD1901 (FIG. 5A) to modulate the […] estradiol (E2) dependent transcriptional activity of the human estrogen receptor alpha (ESR1) and human estrogen receptor beta (ESR2) was assessed in transiently transfected SKBR3 cells using a synthetic reporter gene. […] For FIG. 5B, SKBR3 cells were plated in phenol red free media supplemented with charcoal stripped FBS (CFS) 24 hours prior to transfection with an ERE-luciferase reporter together with ESR1 or ESR2 expression vectors. 24 hours after transfection, cells were treated with E2 (10 nM) together with RAD1901 (10^−10-10^−6 M) for 24 hours prior to harvest and analysis of luciferase activity normalized to co-transfected β-galactosidase control. […] For FIG. 5D, MCF7 cells were plated in phenol red free media supplemented with CFS 24 hours prior to treatment, and were treated with 10^−9 M E2 as well as with the indicated ligands (10^−11-10^−6 M) on days 1, 4, and 6 of an 8 day proliferation assay. DNA content as assessed by fluorescence was measured as a surrogate for cell proliferation. The relative increase in DNA fluorescence was calculated by normalizing to baseline values detected in a duplicate plate of cells that was harvested on day 1 prior to the initial treatment. […] For FIG. 5F, expression of ESR1 target genes in tumors was analyzed essentially as in (C).
# ESR1 = biological target: T2, ESR1 (Homo sapiens, UniProt P03372); experiment: Mammalian two-hybrid conformational profiling of ESR1 with peptide probes in SKBR3 cells; type: cell-based; parameters: expressed in transfected cells; host or cells: SKBR3
# T2 sequence (P03372 1-595): T1 sequence (P03372 1-595)
# Experimental: Triplicate wells of SKBR3 cells were transfected (Lipofectin per manufacturer's instructions) with plasmids expressing ERα fused to VP16 together with Gal4DBD alone (control) or fused to ER interacting peptides noted on the horizontal axis. Cells were then treated with RAD1901 (1 nM-1 μM) or the indicated ER ligands (100 nM). Interaction of ERα with the Gal4DBD peptide constructs was detected through activation of a Gal4 responsive luciferase reporter construct and was normalized to detected β-galactosidase activity generated by a co-transfected constitutive expression vector. Ligand classes recognized by each probe are indicated below the graph.
# Mammalian 2-hybrid analysis of VP16-ESR1 with conformation-selective peptide probes was performed essentially as previously described (Wardell et al., (2012) Mol Endocrinol 26 (7):1235-1248).
# The expression of ESR1 target genes responsive to (FIG. 10A) agonists, (FIG. 10B) primarily SERMs, or (FIG. 10C) SERMs and agonists was analyzed as in FIG. 5. Relative changes of these and additional target genes designed to evaluate dose dependent response to RAD1901 are presented in FIG. 11. Significant target gene regulation (*p<0.05) as compared to the vehicle control was detected by 2 way ANOVA followed by Fisher's LSD (Graphpad Prism 6). […] Triplicate wells of SKBR3 cells were transfected with plasmids expressing ESR1 fused to VP16 together with Gal4DBD alone (control) or Gal4DBD fused to ESR1 interacting peptides noted on the horizontal axis. Cells were then treated with the indicated ESR1 ligands (10^−7 M unless otherwise indicated). Interaction of ESR1 with the Gal4DBD peptide constructs was detected through activation of a Gal4-responsive luciferase reporter construct and was normalized to detected β-galactosidase activity expressed in a constitutive manner using a second vector. Normalized response was expressed as fold increase over the detected level of interaction between Gal4DBD alone and ESR1-VP16 in the absence of ligand (Veh). For FIG. 10E, the effect of SERMs and SERDs (10^−6 M) on the proliferation of MCF7 cells in response to E2 (10^−9 M) or insulin (2×10^−9 M) was evaluated as in FIG. 5. Statistically similar treatments (2-way ANOVA followed by Bonferroni comparison) are indicated by letters. […] The expression of ESR1 target genes responsive to (A) agonists, (B) primarily SERMs, or (C) SERMs and agonists was analyzed using RT qPCR following RNA isolation. mRNA expression was normalized (ΔΔCT analysis) to the similarly detected 36B4 housekeeping. The profiles presented in dendogram format were analyzed with the Ward hierarchical clustering algorithm (JMP 11) using standardized data.
smiles,measurement,setting,value
"CCNCCc1ccc(CN(CC)c2cc(OC)ccc2[C@@H]2CCc3cc(O)ccc3C2)cc1 [RAD1901, (R)-6-{2-{ethyl[4-(2-ethylaminoethyl)benzyl]amino}-4-methoxyphenyl}-5,6,7,8-tetrahydronaphthalen-2-ol]",induction of hot flashes,[1]; healthy postmenopausal women,induces hot flashes in healthy postmenopausal women in a dose dependent manner
same,hot flashes in clinical trials,[1]; higher doses tested,ineffective
same,hot flashes in clinical trials,[1]; lowest dose tested,effectively suppress hot flashes
same,brain penetrance,[1]; postmenopausal women,significant brain penetrance
same,regulation of ER transactivation of target genes AGR2 and KCNK6,"ESR1 target genes; RAD1901 0-1 μM, presence or absence of 17β-estradiol 1 nM",dose dependent agonist/antagonist regulation
same,"expression pattern of ESR1 target genes (agonist-, SERM-, SERM/agonist-responsive)",ESR1 target genes; RAD1901 10^-9-10^-6 M,biphasic response
same,more potent inhibitor of ESR1 than of ESR2,[2]; ERE-luciferase reporter,100 fold
same,inhibition of E2-dependent activation of an ERE-luciferase reporter,"[2]; ESR1 isoform, E2 10 nM, RAD1901 10^-10-10^-6 M, 24 hours",effectively inhibited
same,ESR1 conformation / peptide interaction profile,ESR1,induces a unique conformation of ERα; also recorded: completely distinct from any other known ligand
same,interaction of αII peptide (hinge region surface),ESR1,significant interaction
same,interaction with peptides reporting ESR1 structures adopted upon binding tamoxifen (aβV) or ICI (βI2),ESR1,No interaction was observed
same,interaction with peptides that report on agonist activity (ASC1 and PGC1),ESR1,decreased interaction
